What was measured:
NCI-H23 = test: NCI-60 screen, Non-Small Cell Lung Cancer NCI-H23; format: cell-based, human; settings: NCI-H23, 10^−5 M one dose
NCI/ADR-RES = test: NCI-60 screen, Ovarian Cancer NCI/ADR-RES; format: cell-based, human; settings: 10^−5 M one dose
HCC-2998 = test: NCI-60 screen, Colon Cancer HCC-2998; format: cell-based, human; settings: HCC-2998, 10^−5 M one dose
SW620 = test: NCI-60 screen, Colon Cancer SW620; format: cell-based, human; settings: SW620, 10^−5 M one dose
SNB-75 = test: NCI-60 screen, CNS Cancer SNB-75; format: cell-based, human; settings: SNB-75, 10^−5 M one dose
OVCAR-3 = test: NCI-60 screen, Ovarian Cancer OVCAR-3; format: cell-based, human; settings: OVCAR-3, 10^−5 M one dose
HS 578T = test: NCI-60 screen, Breast Cancer HS 578T; format: cell-based, human; settings: 10^−5 M one dose
OVCAR-8 = test: NCI-60 screen, Ovarian Cancer OVCAR-8; format: cell-based, human; settings: OVCAR-8, 10^−5 M one dose
COLO-205 = test: NCI-60 screen, Colon Cancer COLO-205; format: cell-based, human; settings: COLO-205, 10^−5 M one dose
T-47D = test: NCI-60 screen, Breast Cancer T-47D; format: cell-based; settings: T-47D, 10^−5 M one dose
SF-295 = test: NCI-60 screen, CNS Cancer SF-295; format: cell-based, human; settings: SF-295, 10^−5 M one dose
HT29 = test: NCI-60 screen, Colon Cancer HT29; format: cell-based, human; settings: HT29, 10^−5 M one dose
NCI-H522 = test: NCI-60 screen, Non-Small Cell Lung Cancer NCI-H522; format: cell-based, human; settings: NCI-H522, 10^−5 M one dose
HaCaT = test: MTT cell viability assay, HaCaT; format: cell-based, human; settings: Homo sapiens; HaCaT normal cells, MTT, 72 h, mean ± SD
Procedure: (§1) Twelve compounds (2a-e, 3a-d and 4a-c) at a concentration range of 50–5000 μM were tested for their antiproliferative potential against four human cancer cell lines (A375—melanotic melanoma, C32—amelanotic melanoma, DU145—prostate cancer androgen-independent, MCF-7/WT—breast adenocarcinoma) and two normal cell lines: Chinese Hamster Ovary (CHO-K1) and immortalized human keratinocytes from histologically normal skin (HaCaT).
(§2) To determine the antiproliferative activity of newly synthesized compounds, the following cell lines were used: human melanotic melanoma cell line (A375), human amelanotic melanoma cell line (C32), human breast adenocarcinoma cell line (MCF-7/WT), human prostate cancer androgen-independent (DU145) and two normal cell lines: hamster ovarian (CHO-K1) and immortalized human keratinocytes from histologically normal skin (HaCaT). The cells were obtained from the cell line bank of the Department of Molecular and Cellular Biology, Wroclaw Medical University. A375, C32, MCF-7/WT, DU145 and HaCaT cells were grown in a monolayer cultured in Dulbecco’s Modified Eagle’s Medium (DMEM, Sigma-Aldrich, Poznań, Poland), supplemented with 10% of fetal bovine serum (FBS, Gibco, Paisley, UK) and 1% of antibiotics (penicillin/streptomycin, Sigma-Aldrich) and CHO-K1 were grown in HAM’s F-12 medium (Sigma-Aldrich), supplemented with 10% fetal bovine serum (FBS, Gibco) and 1% of antibiotics (penicillin/streptomycin, Sigma-Aldrich). Cell lines were cultured in the polystyrene flasks 25 or 75 cm^2 (Thermo Fisher Scientific, Waltham, MA, USA), which were stored in 37 °C and 5% CO2 in a humidified 95% atmosphere (SteriCult, Thermo Scientific, Alab). The cell medium was exchanged twice a week. The exponentially growing cells were used throughout the experiments. The cells were rinsed with phosphate-buffered saline (PBS, Sigma-Aldrich) and trypsinized by Trypsin-EDTA 0.25% solution (Sigma-Aldrich).
(§3) The influence of the compounds was performed in a monolayer culture on cancer and normal cells. Compounds were initially dissolved in DMSO; further dilutions of the compound were performed in Dulbecco’s Modified Eagle’s Medium supplemented with 10% FBS. Compounds were tested in a 50–5000 µM concentration range. In the in vitro experiments, the concentrations of DMSO in the final solution of the compounds were used 0.05%; 0.1%; 0.5%; 1%, respectively.
(§4) Cell viability was determined using the MTT colorimetric assay. All cell lines were seeded into 96-well plates to a density of 3 × 10^4 cells/well. After 24 h, the culture supernatants were removed and appropriate dilutions of compounds in the culture medium (200 µL/well) were added to the cells’ monolayer cultures and incubated for an additional 72 h. After 72 h of exposition to the compounds and the removal of the culture medium, cell viability was determined by reducing the yellow dye 3-(4,5-dimethyl-2-thiazol)-2,5-diphenyl-2H-tetrazolium bromide (MTT assay, Sigma Saint Louis, MO, USA; In Vitro Toxicology Assay) to a blue formazan product. The absorbance of the resulting solutions in three duplicate experiments was measured at the wavelength of 560 nm in a microplate reader (EnSpire, Perkin Elmer, Kraków, Poland). MTT assay is a colorimetric method that estimates the rate of metabolism in viable cells. Absorbance is directly proportional to the number of viable cells. All the experiments were performed three times and the mean absorbance values were calculated. The methodology for the evaluation of the growth of human cancer and normal cells was described previously. The cell viability in each group was expressed as a percentage of control (untreated) cells.

MCF-7/WT = test: MTT cell viability assay, MCF-7/WT; format: cell-based; settings: Homo sapiens, MCF7, 72 h, mean ± SD
Procedure: as §1, §2, §3, §4

RXF 393 = test: NCI-60 screen, Renal Cancer RXF 393; format: cell-based, human; settings: RXF 393, 10^−5 M one dose
CHO-K1 = test: MTT cell viability assay, CHO-K1; format: cell-based, Chinese Hamster; settings: Cricetulus griseus; CHO-K1 normal cells, MTT, 72 h, mean ± SD
Procedure: as §1, §2, §3, §4

RPMI-8226 = test: NCI-60 screen, Leukemia RPMI-8226; format: cell-based, human; settings: RPMI-8226, 10^−5 M one dose
NCI-H322M = test: NCI-60 screen, Non-Small Cell Lung Cancer NCI-H322M; format: cell-based, human; settings: 10^−5 M one dose

| Compound | Growth of Cells (%) (NCI-H23) | Growth of Cells (%) (NCI/ADR-RES) | Growth of Cells (%) (HCC-2998) | Growth of Cells (%) (SW620) | Growth of Cells (%) (SNB-75) | Growth of Cells (%) (OVCAR-3) | Growth of Cells (%) (HS 578T) | Growth of Cells (%) (OVCAR-8) | Growth of Cells (%) (COLO-205) | Growth of Cells (%) (T-47D) | Growth of Cells (%) (SF-295) | Growth of Cells (%) (HT29) | Growth of Cells (%) (NCI-H522) | IC50 (HaCaT) [µM] | IC50 (MCF-7/WT) [µM] | Growth of Cells (%) (RXF 393) | IC50 (CHO-K1) [µM] | Growth of Cells (%) (RPMI-8226) | Growth of Cells (%) (NCI-H322M) |
| --- | --- | --- | --- | --- | --- | --- | --- | --- | --- | --- | --- | --- | --- | --- | --- | --- | --- | --- | --- |
| CCNc1nc(C(F)(F)F)nc2c1sc(=S)n2-c1ccccc1 [Compound 4b, 7-(ethylamino)-3-phenyl-5-(trifluoromethyl)[1, 3]thiazolo[4,5-d]pyrimidine-2(3H)-thione] | 93.44 | 92.88 | 115.06 | 106.24 | 99.24 | 106.99 | 106.83 | 96.11 | 105.73 | 73.92 | 94.05 | 88.76 | 70.40 | 730 ± 31.1 | 686 ± 29.3 | 100.09 | 237 ± 10.1 |  |  |
| Fc1ccc(CNc2nc(C(F)(F)F)nc3c2sc(=S)n3-c2ccccc2)cc1 [Compound 4c] |  | 114.00 | 118.24 | 114.74 | 103.11 | 111.62 | 125.43 | 98.68 | 112.07 | 85.37 | 91.10 | 103.27 | 90.73 | 565 ± 24.7 | 568 ± 24.8 | 104.44 | 549 ± 24 | 104.96 |  |
| O=c1[nH]c(C(F)(F)F)nc2c1sc(=S)n2-c1ccccc1 [Compound 2b, 3-phenyl-2-thioxo-5-(trifluoromethyl)-2,3-dihydro[1, 3]thiazolo[4,5-d]pyrimidin-7(6H)-one] | 112.30 | 25.77 | 116.48 | 95.09 | 91.21 | 110.35 | 65.01 | 103.45 | 114.26 | 108.41 | 116.63 | 100.96 | 90.35 | 712 ± 29.3 | 557 ± 22.9 | 95.34 | 319 ± 13.1 | 108.14 | 128.80 |

From publication PMC8778818, “Synthesis, Structural Characterization and Anticancer Activity of New 5-Trifluoromethyl-2-thioxo-thiazolo[4,5-d]pyrimidine Derivatives” (Pharmaceuticals, 2022)
